Laboratory results reported in PubChem BioAssay (NCI).
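These data come from cells grown in 96-well plates and exposed to compound for 48 hours at five concentrations. GI50 is the concentration that inhibits growth by half. TGI: total growth inhibition.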

Columns and labels:
Assay in all cases: NCI tumour cell line growth inhibition, 48 h
NCI-H460 lung = system: NCI-H460 lung
OVCAR-4 ovarian = system: OVCAR-4 ovarian
MCF7 breast = system: MCF7 breast
A498 renal = system: A498 renal
NCI-H226 lung = system: NCI-H226 lung
COLO 205 colon = system: COLO 205 colon
HL-60(TB) leukemia = system: HL-60(TB) leukemia
KM12 colon = system: KM12 colon
SNB-19 CNS = system: SNB-19 CNS
RPMI-8226 leukemia = system: RPMI-8226 leukemia
EKVX NSCLC = system: EKVX NSCLC
MOLT-4 leukemia = system: MOLT-4 leukemia
SR leukemia = system: SR leukemia
LOX IMVI melanoma = system: LOX IMVI melanoma
HOP-62 NSCLC = system: HOP-62 NSCLC
CCRF-CEM leukemia = system: CCRF-CEM leukemia
U251 CNS = system: U251 CNS
SF-539 CNS = system: SF-539 CNS
SK-MEL-5 melanoma = system: SK-MEL-5 melanoma
SW-620 colon = system: SW-620 colon
HOP-92 NSCLC = system: HOP-92 NSCLC
DU-145 prostate = system: DU-145 prostate
HCT-15 colon = system: HCT-15 colon
SK-MEL-28 melanoma = system: SK-MEL-28 melanoma
OVCAR-8 ovarian = system: OVCAR-8 ovarian
CAKI-1 renal = system: CAKI-1 renal
786-0 renal = system: 786-0 renal
NCI-H23 lung = system: NCI-H23 lung
MDA-MB-231 breast = system: MDA-MB-231 breast
UACC-257 melanoma = system: UACC-257 melanoma
IGROV1 ovarian = system: IGROV1 ovarian
BT-549 breast = system: BT-549 breast
SK-OV-3 ovarian = system: SK-OV-3 ovarian
M14 melanoma = system: M14 melanoma
RXF 393 renal = system: RXF 393 renal
MDA-MB-435 = system: MDA-MB-435
SNB-75 CNS = system: SNB-75 CNS
UACC-62 melanoma = system: UACC-62 melanoma
ACHN renal = system: ACHN renal
NCI/ADR-RES ovarian = system: NCI/ADR-RES ovarian
HCT-116 colon = system: HCT-116 colon
SK-MEL-2 melanoma = system: SK-MEL-2 melanoma
SF-268 CNS = system: SF-268 CNS
PC-3 prostate = system: PC-3 prostate
UO-31 renal = system: UO-31 renal
HT29 colon = system: HT29 colon
K-562 leukemia = system: K-562 leukemia
HCC-2998 colon = system: HCC-2998 colon
SF-295 CNS = system: SF-295 CNS
T-47D breast = system: T-47D breast
TK-10 renal = system: TK-10 renal
MALME-3M melanoma = system: MALME-3M melanoma
OVCAR-5 ovarian = system: OVCAR-5 ovarian
OVCAR-3 ovarian = system: OVCAR-3 ovarian
HS 578T breast = system: HS 578T breast
NCI-H522 lung = system: NCI-H522 lung
SN12C renal = system: SN12C renal
A549 NSCLC = system: A549 NSCLC

Structure (SMILES): OC(c1ccc(F)cc1)C(F)(F)c1nc2ccccc2o1 (stereo not given)
- TGI (NCI-H460 lung): > 100 µM
- TGI (OVCAR-4 ovarian): > 100 µM
- TGI (MCF7 breast): > 100 µM
- TGI (A498 renal): > 100 µM
- TGI (NCI-H226 lung): > 100 µM
- TGI (COLO 205 colon): > 100 µM
- TGI (HL-60(TB) leukemia): > 100 µM
- TGI (KM12 colon): > 100 µM
- TGI (SNB-19 CNS): > 100 µM
- TGI (RPMI-8226 leukemia): > 100 µM
- TGI (EKVX NSCLC): > 100 µM
- TGI (MOLT-4 leukemia): > 100 µM
- TGI (SR leukemia): > 100 µM
- TGI (LOX IMVI melanoma): > 100 µM
- TGI (HOP-62 NSCLC): > 100 µM
- TGI (CCRF-CEM leukemia): > 100 µM
- TGI (U251 CNS): > 100 µM
- TGI (SF-539 CNS): > 100 µM
- TGI (SK-MEL-5 melanoma): > 100 µM
- TGI (SW-620 colon): > 100 µM
- TGI (HOP-92 NSCLC): > 100 µM
- TGI (DU-145 prostate): > 100 µM
- TGI (HCT-15 colon): > 100 µM
- TGI (SK-MEL-28 melanoma): > 100 µM
- TGI (OVCAR-8 ovarian): > 100 µM
- TGI (CAKI-1 renal): > 100 µM
- TGI (786-0 renal): > 100 µM
- TGI (NCI-H23 lung): > 100 µM
- TGI (MDA-MB-231 breast): > 100 µM
- TGI (UACC-257 melanoma): > 100 µM
- TGI (IGROV1 ovarian): > 100 µM
- TGI (BT-549 breast): > 100 µM
- TGI (SK-OV-3 ovarian): > 100 µM
- TGI (M14 melanoma): > 100 µM
- TGI (RXF 393 renal): > 100 µM
- TGI (MDA-MB-435): > 100 µM
- TGI (SNB-75 CNS): > 100 µM
- TGI (UACC-62 melanoma): > 100 µM
- TGI (ACHN renal): > 100 µM
- TGI (NCI/ADR-RES ovarian): > 100 µM
- TGI (HCT-116 colon): > 100 µM
- TGI (SK-MEL-2 melanoma): > 100 µM
- TGI (SF-268 CNS): > 100 µM
- TGI (PC-3 prostate): > 100 µM
- TGI (UO-31 renal): > 100 µM
- TGI (HT29 colon): > 100 µM
- TGI (K-562 leukemia): 82.3 µM
- TGI (HCC-2998 colon): > 100 µM
- TGI (SF-295 CNS): > 100 µM
- TGI (T-47D breast): > 100 µM
- TGI (TK-10 renal): > 100 µM

Structure (SMILES): COc1ccc(/C=C/C(=O)c2cc(OC)c(OC)c(OC)c2)cc1OCC(=O)Nc1nc2ccc(OC(F)(F)F)cc2s1
- GI50 (NCI-H460 lung): 2.43 µM
- TGI (NCI-H460 lung): 6.25 µM
- GI50 (OVCAR-4 ovarian): 2.07 µM
- TGI (OVCAR-4 ovarian): 5.14 µM
- GI50 (MCF7 breast): 1.32 µM
- TGI (MCF7 breast): 7.77 µM
- GI50 (A498 renal): 7.4 µM
- TGI (A498 renal): 31.7 µM
- GI50 (NCI-H226 lung): 3.35 µM
- TGI (NCI-H226 lung): 32.1 µM
- GI50 (COLO 205 colon): 6.37 µM
- TGI (COLO 205 colon): 39.8 µM
- GI50 (KM12 colon): 1.51 µM
- TGI (KM12 colon): 4.19 µM
- GI50 (SNB-19 CNS): 1.58 µM
- TGI (SNB-19 CNS): 51.8 µM
- GI50 (RPMI-8226 leukemia): 2.02 µM
- TGI (RPMI-8226 leukemia): > 100 µM
- GI50 (EKVX NSCLC): 5.11 µM
- TGI (EKVX NSCLC): > 100 µM
- GI50 (MOLT-4 leukemia): 2.89 µM
- TGI (MOLT-4 leukemia): > 100 µM
- GI50 (SR leukemia): 0.391 µM
- TGI (SR leukemia): 3.66 µM
- GI50 (LOX IMVI melanoma): 0.47 µM
- TGI (LOX IMVI melanoma): 1.95 µM
- GI50 (HOP-62 NSCLC): 2.12 µM
- TGI (HOP-62 NSCLC): 4.33 µM
- GI50 (CCRF-CEM leukemia): 2.5 µM
- TGI (CCRF-CEM leukemia): > 100 µM
- GI50 (U251 CNS): 0.703 µM
- TGI (U251 CNS): 2.58 µM
- GI50 (SF-539 CNS): 0.293 µM
- TGI (SF-539 CNS): 1.18 µM
- GI50 (SK-MEL-5 melanoma): 2.03 µM
- TGI (SK-MEL-5 melanoma): 10.5 µM
- GI50 (SW-620 colon): 1.08 µM
- TGI (SW-620 colon): > 100 µM
- GI50 (HOP-92 NSCLC): 2.14 µM
- TGI (HOP-92 NSCLC): 7.32 µM
- GI50 (DU-145 prostate): 1.56 µM
- TGI (DU-145 prostate): 4.55 µM
- GI50 (HCT-15 colon): 0.407 µM
- TGI (HCT-15 colon): 10.9 µM
- GI50 (SK-MEL-28 melanoma): 3.31 µM
- TGI (SK-MEL-28 melanoma): 25.9 µM
- GI50 (OVCAR-8 ovarian): 1.54 µM
- TGI (OVCAR-8 ovarian): 3.89 µM
- GI50 (CAKI-1 renal): 2.2 µM
- TGI (CAKI-1 renal): 6.03 µM
- GI50 (786-0 renal): 2.26 µM
- TGI (786-0 renal): 4.97 µM
- GI50 (NCI-H23 lung): 2.15 µM
- TGI (NCI-H23 lung): 6.2 µM
- GI50 (MDA-MB-231 breast): 2.01 µM
- TGI (MDA-MB-231 breast): 5.01 µM
- GI50 (UACC-257 melanoma): 8.08 µM
- TGI (UACC-257 melanoma): > 100 µM
- GI50 (IGROV1 ovarian): 2.54 µM
- TGI (IGROV1 ovarian): 5.56 µM
- GI50 (BT-549 breast): 2.71 µM
- TGI (BT-549 breast): 29.6 µM
- GI50 (SK-OV-3 ovarian): 2.16 µM
- TGI (SK-OV-3 ovarian): 5.07 µM
- GI50 (M14 melanoma): 1.72 µM
- TGI (M14 melanoma): 4.52 µM
- GI50 (RXF 393 renal): 1.58 µM
- TGI (RXF 393 renal): 3.74 µM
- GI50 (MALME-3M melanoma): 2.69 µM
- TGI (MALME-3M melanoma): 13.5 µM
- GI50 (MDA-MB-435): 0.3 µM
- TGI (MDA-MB-435): 1.08 µM
- GI50 (SNB-75 CNS): 0.34 µM
- TGI (SNB-75 CNS): 2.3 µM
- GI50 (UACC-62 melanoma): 9.52 µM
- TGI (UACC-62 melanoma): 42.1 µM
- GI50 (OVCAR-5 ovarian): 4.76 µM
- TGI (OVCAR-5 ovarian): 31.2 µM
- GI50 (ACHN renal): 1.62 µM
- TGI (ACHN renal): 3.85 µM
- GI50 (OVCAR-3 ovarian): 1.52 µM
- TGI (OVCAR-3 ovarian): 3.14 µM
- GI50 (NCI/ADR-RES ovarian): 0.492 µM
- TGI (NCI/ADR-RES ovarian): 2.31 µM
- GI50 (HS 578T breast): 3.08 µM
- TGI (HS 578T breast): > 100 µM
- GI50 (HCT-116 colon): 1.43 µM
- TGI (HCT-116 colon): 3.15 µM
- GI50 (SK-MEL-2 melanoma): 4.97 µM
- TGI (SK-MEL-2 melanoma): 27.1 µM
- GI50 (NCI-H522 lung): 0.671 µM
- TGI (NCI-H522 lung): 3.36 µM
- GI50 (SF-268 CNS): 1.2 µM
- TGI (SF-268 CNS): 8.5 µM
- GI50 (PC-3 prostate): 3.14 µM
- TGI (PC-3 prostate): 7.82 µM
- GI50 (UO-31 renal): 1.61 µM
- TGI (UO-31 renal): 5.07 µM
- GI50 (HT29 colon): 3.66 µM
- TGI (HT29 colon): 79.4 µM
- GI50 (K-562 leukemia): 0.438 µM
- TGI (K-562 leukemia): 10.2 µM
- GI50 (HCC-2998 colon): 6.18 µM
- TGI (HCC-2998 colon): 25.1 µM
- GI50 (SF-295 CNS): 2.21 µM
- TGI (SF-295 CNS): 6.09 µM
- GI50 (SN12C renal): 1.74 µM
- TGI (SN12C renal): 4.67 µM
- GI50 (T-47D breast): 3.08 µM
- TGI (T-47D breast): 10.9 µM
- GI50 (TK-10 renal): 2.08 µM
- TGI (TK-10 renal): 4.62 µM
- GI50 (A549 NSCLC): 1.99 µM
- TGI (A549 NSCLC): 4.7 µM
